From patent US20240158384A1, “CB2 RECEPTOR AGONISTS” (The Board of Trustees of the Leland Stanford Junior …, priority 2020, published 2024)
pEC50, pIC50: −log10 of the molar value. In brackets after ≈: the same amount, converted by molar mass. Entries after “also recorded” stand apart in the source; their conditions may differ.

Columns and labels:
[1] = target: T1, human CB1R (Homo sapiens, UniProt P21554); assay: cAMP Hunter eXpress GPCR assay, human CB1: inhibition of forskolin-stimulated cAMP in CHO cells; assay type: cell-based
T1 construct: host or cells: CHO cells
T1 sequence (P21554 whole entry): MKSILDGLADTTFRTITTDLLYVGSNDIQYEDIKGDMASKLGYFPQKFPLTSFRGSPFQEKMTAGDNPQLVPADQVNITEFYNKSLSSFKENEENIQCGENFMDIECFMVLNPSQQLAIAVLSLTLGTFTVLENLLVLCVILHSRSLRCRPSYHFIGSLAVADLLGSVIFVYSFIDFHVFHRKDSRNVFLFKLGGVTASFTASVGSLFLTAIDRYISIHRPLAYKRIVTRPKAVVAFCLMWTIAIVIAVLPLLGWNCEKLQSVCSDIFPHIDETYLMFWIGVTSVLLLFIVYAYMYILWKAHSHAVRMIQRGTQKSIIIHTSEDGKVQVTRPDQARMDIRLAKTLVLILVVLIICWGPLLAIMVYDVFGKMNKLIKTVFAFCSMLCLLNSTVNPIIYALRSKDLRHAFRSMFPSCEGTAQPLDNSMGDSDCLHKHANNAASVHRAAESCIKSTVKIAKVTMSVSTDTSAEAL
Protocol: Briefly, cAMP Hunter eXpress Cells were seeded 18-24 h prior to the in a 96-well tissue culture treated assay plate and incubated in 5% CO2 at 37° C. in a humidified incubator. After removal of cell media, agonist compound and forskolin prepared in cell assay buffer was added and incubated at 37° C. The CB1 cAMP assay was stimulated with 20 μM final concentration of forskolin with 40 minutes incubation time. The CB2 cAMP assay was stimulated with 25 μM final concentration of forskolin with 35 minutes incubation time. The assay was stopped by incubation with antibody and working solution for 1 h at room temperature. After over 3 h incubation at room temperature in the dark with enzyme acceptor solution, chemiluminescence was measured on a CLARIOstar plate reader (BMG LABTECH Inc., Cary, NC, USA).

[2] = target: human CB2R (Homo sapiens, UniProt P34972); assay: PathHunter β-Arrestin assay, beta-arrestin recruitment; assay type: cell-based
Sequence of human CB2R (P34972 whole entry): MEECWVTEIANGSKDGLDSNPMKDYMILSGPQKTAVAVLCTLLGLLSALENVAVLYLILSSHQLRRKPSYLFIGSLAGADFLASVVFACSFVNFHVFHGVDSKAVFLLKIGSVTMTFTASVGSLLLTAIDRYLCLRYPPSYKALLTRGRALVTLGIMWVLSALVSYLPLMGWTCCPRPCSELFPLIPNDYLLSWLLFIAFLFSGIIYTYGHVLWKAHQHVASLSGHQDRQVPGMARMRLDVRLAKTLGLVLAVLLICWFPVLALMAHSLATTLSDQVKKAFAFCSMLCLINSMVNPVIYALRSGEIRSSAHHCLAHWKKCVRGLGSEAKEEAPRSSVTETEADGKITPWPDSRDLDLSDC
Protocol: The assay was performed using the PathHunter β-Arrestin human CB2 cell line (catalog no. 93-0706C2) and using the PathHunter® β-Arrestin Assay for GPCR Cell Lines (source: DiscoveRx, Fremont, CA, USA), according to the manufacturer's protocol (https://www.discoverx.com/tools-resources/document-resource-library/documents/user-manual-pathhunter-% CE % B2-arrestin-assay-for-gpcr-c). Briefly, cells were seeded at a density of 10,000 cells per well in a 96-well plate and incubated overnight (16-18 h) in a humidified atmosphere at 37° C. and 5% C02. Agonist prepared in PBS was added and the assay plate incubated for 3 h in a humidified atmosphere at 37° C. and 5% C02. Working detection solution was added and the plate was incubated for 1 h in the dark at room temperature. Chemiluminescence was measured on an CLARIOstar plate reader (BMG LABTECH Inc., Cary, NC, USA).

[3] = system: Male C57Bl6J mice; assay: Spontaneous locomotor activity in activity chamber; assay type: in vivo, mouse; conditions: mice, compound alone i.p., 90 minutes after dosing, vs vehicle
[4] = system: Male C57Bl6J mice; assay: Amphetamine-induced hyperactivity test; assay type: in vivo, mouse; conditions: compound i.p. 30 min before AMPH 2 mg/kg i.p., vs vehicle
Protocol: Male C57Bl6J mice were evaluated in an activity chamber apparatus for the amphetamine-induced hyperactivity test. […] To determine the effects of Compound 22 on amphetamine-induced hyperactivity, mice were placed in the activity chamber for a 30 min baseline period. At the end of that period, mice were removed from the chamber, dosed intraperitoneally with Compound 22 (1 mg/kg, 3 mg/kg, or 10 mg/kg) or vehicle and returned to the home cage. Thirty minutes after dosing, mice were dosed (ip) with amphetamine (AMPH, 2 mg/kg) and immediately placed into the activity chamber for a one-hour post-dose session.

[5] = Aqueous solubility; assay type: physicochemical; conditions: aqueous medium (not further specified)
Protocol: (§1) Detailed characterization data was collected for Compound 22. Primary assays were carried out according to Examples 2 and 3, while other assays were carried out according to standard methods.

[6] = target: GPR55 (Homo sapiens, UniProt Q9Y2T6); assay: Off-target activity GPR55 (agonist, antagonist, PAM modes); assay type: cell-based
Sequence of GPR55 (Q9Y2T6 whole entry, species assumed): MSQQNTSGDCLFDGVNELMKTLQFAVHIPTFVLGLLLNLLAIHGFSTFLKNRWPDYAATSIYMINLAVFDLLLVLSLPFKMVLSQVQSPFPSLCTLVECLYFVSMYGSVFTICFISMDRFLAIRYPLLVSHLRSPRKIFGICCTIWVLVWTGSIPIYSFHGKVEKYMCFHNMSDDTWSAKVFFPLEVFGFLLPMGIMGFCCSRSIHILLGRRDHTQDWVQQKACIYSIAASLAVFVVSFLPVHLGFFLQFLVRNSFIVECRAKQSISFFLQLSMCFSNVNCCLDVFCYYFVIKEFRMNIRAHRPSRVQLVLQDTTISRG
Protocol: as §1

[7] = system: 168 GPCRs; assay: Broad screening panel gpcrMAX; assay type: cell-based; conditions: gpcrMAX at 70 nM against 168 GPCRs
Protocol: as §1

[8] = Plasma and brain pharmacokinetics in mice; assay type: in vivo; conditions: male, C57BL/6, mouse, 10 mg/kg
Protocol: Plasma and brain concentrations of Compounds 11, 22, 16, and 24 were determined by LC-MS/MS after IV and PO dosing in male C57BL/6 mice at 10 mg/kg. Data are shown in FIGS. 10A-10D for Compounds 11, 22, 16, and 24, respectively.
as §1

[9] = Brain protein binding; assay type: in vitro ADME; conditions: brain tissue
Protocol: as §1

[10] = Microsomal stability; assay type: in vitro ADME
Protocol: as §1

[11] = Mouse hepatocytes metabolic stability; assay type: in vitro ADME
Protocol: as §1

[12] = system: extracellular dopamine (DA) in nucleus accumbens; assay: Microdialysis of nucleus accumbens, extracellular dopamine after AMPH; assay type: in vivo, mouse; conditions: 10 mg/kg i.p., 40 min before AMPH 2 mg/kg i.p.; n=1/group
Protocol: For this study, a probe was implanted into the nucleus accumbens (NAc) (FIG. 11A). Following baseline measurements, mice were dosed with vehicle or Compound 22 (10 mg/kg, i.p) followed 40 min later by a single dose of AMPH (2 mg/kg, i.p.). Samples were collected for 2 hr post-dosing. Extracellular dopamine (DA) levels in the dialysate were quantified by HPLC with electrochemical detection (FIG. 11B). […] Compound 22 modulates both spontaneous and reward-related DA release. To confirm these findings in parallel experiments, GPCR-activation based-DA (GRAB-DA) was used, which is a human D2R-GFP chimera sensor that produces fluorescence changes reliably and with sub-second kinetics in response to extracellular DA concentration changes in behaving animals (Sun et al. Cell 2018; 174(2):481-96.e19). Mice were injected with an adeno-associated virus (AAV) carrying GRAB-DA into the (NAc) (FIG. 11C) and allowed to recover for −2 weeks before fiber photometry experiments were performed. In the first pilot experiment, baseline DA release were recorded for 5 min before mice (n=3) were injected with either Compound 22 or vehicle and then recording was continued for 45 min. The rate of spontaneous DA transients was compared in the pre-injection (0-5 min) vs post-injection (35-50 min) periods; there was a significant time x drug interaction: F(1,4)=11.91, P=0.026.

[13] = system: DA response to reward; assay: GRAB-DA fiber photometry during operant task for sucrose reward; assay type: in vivo, mouse; conditions: injected 30 min before task, n=3, vs vehicle
Protocol: In a second experiment, the same mice (n=3) were trained to nose poke a dedicated port to gain access to sucrose reward. During the task, GRAB-DA was used to measure DA release in response to reward. After ˜2 weeks of training, the effect of Compound 22 vs. vehicle on the DA response to reward was examined. On the first day, either drug or vehicle was injected followed by waiting 30 min, and then recording DA during the task. The order of drug vs. vehicle was counterbalanced between mice. […] Thus, Compound 22 appears to be capable of modulating both spontaneous and reward-related DA release.

## CC(C)(CO)c1cc(NC(=O)N2CCCN2c2ccc(C(F)(F)F)cc2)no1 [Compound 22, N-(5-(1-hydroxy-2-methylpropan-2-yl)isoxazol-3-yl)-2-(4-(trifluoromethyl)phenyl)pyrazolidine-1-carboxamide]
[1]
  pEC50: < 5.00
[2]
  pEC50: 6.24
[2]; hCB2, CP-55940 as control
  Activation of beta-arrestin pathway (in words): weak beta-arrestin activity
[3]
  Distance moved / spontaneous locomotor activity: do not exhibit significantly different distance moved compared to the vehicle
[4]
  Amphetamine-induced hyperactivity: reduces the hyperactivity induced by AMPH compared to vehicle controls, with significant reduction at 10 mg/kg; also recorded: able to reduce hyperactivity at doses as low as 0.1 mg/kg, i.p
[5]
  solubility: 17.4 µg/mL (≈ 43.6 µM)
[6]
  pEC50: < 5.00
  pIC50: < 5.00
[7]
  Activity in broad screening panel: No significant off
[8]; in vivo, Via oral administration, 3 mice, at 24 h, read-out: Brain to plasma ratio
  Kp at 24 h: 0.97
[8]; plasma, Oral bioavailability
  bioavailability: 100%
[9]
  fraction unbound: 0.0198
[10]
  Microsomal stability, clearance class: Low clearance
[10]; microsomes, read-out: Microsomal stability t ½
  half-life: 2 h
[11]
  Mouse hepatocytes metabolic stability, clearance class: Medium clearance
[11]; read-out: Mouse hepatocytes metabolic stability t ½
  half-life: > 2 h
[12]
  Extracellular DA release after AMPH dosing: reduced extracellular DA release after AMPH dosing
[13]
  Ability to perform task and maximum reward-induced DA release: not a significant effect on the ability of mice to perform this task or the maximum reward-induced DA release
  DA response curve to sucrose reward: appeared to widen the DA response curve
other
  melting point: 142 to 146 °C
